PubChem BioAssay AID1963976 (Molecular Pharmacology Branch, DTP, NCI, 2024)

System: 435261-313-R-J1-PDC tumor spheroid viability
Assay: Anticancer human tumor 435261-313-R-J1-PDC patient-derived colon adenocarcinoma cell line growth inhibition [PI3K]
Settings: spheroids with HUVEC and MSC; for IC50: curve of first compound; for viability, T/C: stronger effect = lower value
Method in brief: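 Targeted small molecules plus PI3K inhibitors, half-log dose series from Cmax (default top 10 microM), were applied to heterotypic spheroids of cancer cells with HUVEC and MSCs. Viability indicated growth inhibition.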

[1] = second compound 0.0316 µM, first compound 0.0316 µM
[2] = second compound 0.0316 µM, first compound 0.1 µM
[3] = second compound 0.1 µM, first compound 0.0316 µM
[4] = second compound 0.1 µM, first compound 0.1 µM
[5] = second compound 0.316 µM, first compound 0.0316 µM
[6] = second compound 0.316 µM, first compound 0.1 µM
[7] = second compound 1 µM, first compound 0.0316 µM
[8] = second compound 1 µM, first compound 0.1 µM
[9] = second compound 3.16 µM, first compound 0.0316 µM
[10] = second compound 3.16 µM, first compound 0.1 µM
[11] = second compound 10 µM, first compound 0.0316 µM
[12] = second compound 10 µM, first compound 0.1 µM
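Also: spheroids exposed to compounds for 7 days.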

Question: Which IC50 (second compound 0.0316 µM) does the source give for `CC(C)n1nc(-c2ccc3oc(N)nc3c2)c2c(N)ncnc21` + Cc1nc(NC(=O)N2CCCC2C(N)=O)sc1-c1ccnc(C(C)(C)C(F)(F)F)c1 here?
Answer: 26.3 nM

Question: What about the IC50 (second compound 0.1 µM) of the same compound?
Answer: 20.2 nM

Question: What about the IC50 (second compound 0.316 µM) of the same compound?
Answer: 3.58 nM

Question: What about the IC50 (second compound 1 µM) of the same compound?
Answer: < 0.316 nM

Question: And the IC50 (second compound 3.16 µM)?
Answer: < 0.316 nM

Question: What about the IC50 (second compound 10 µM) of the same compound?
Answer: < 0.316 nM

Question: And the viability, T/C (second compound 0.0316 µM, first compound 0.000316 µM)?
Answer: 83.6%

Question: What about the viability, T/C (second compound 0.0316 µM, first compound 0.001 µM) of the same compound?
Answer: 93%

Question: What about the viability, T/C (second compound 0.0316 µM, first compound 0.00316 µM) of the same compound?
Answer: 76.7%

Question: And the viability, T/C (second compound 0.0316 µM, first compound 0.01 µM)?
Answer: 47.9%

Question: What about the viability, T/C [1] of the same compound?
Answer: 62%

Question: What about the viability, T/C [2] of the same compound?
Answer: 13.6%

Question: And the viability, T/C (second compound 0.1 µM, first compound 0.000316 µM)?
Answer: 76.9%

Question: And the viability, T/C (second compound 0.1 µM, first compound 0.001 µM)?
Answer: 71.1%

Question: And the viability, T/C (second compound 0.1 µM, first compound 0.00316 µM)?
Answer: 94.3%

Question: And the viability, T/C (second compound 0.1 µM, first compound 0.01 µM)?
Answer: 65.6%

Question: And the viability, T/C [3]?
Answer: 38.6%

Question: What about the viability, T/C [4] of the same compound?
Answer: 15.4%

Question: And the viability, T/C (second compound 0.316 µM, first compound 0.000316 µM)?
Answer: 46.4%

Question: And the viability, T/C (second compound 0.316 µM, first compound 0.001 µM)?
Answer: 67.7%

Question: What about the viability, T/C (second compound 0.316 µM, first compound 0.00316 µM) of the same compound?
Answer: 45.8%

Question: What about the viability, T/C (second compound 0.316 µM, first compound 0.01 µM) of the same compound?
Answer: 40%

Question: What about the viability, T/C [5] of the same compound?
Answer: 18.3%

Question: And the viability, T/C [6]?
Answer: 12.8%

Question: And the viability, T/C (second compound 1 µM, first compound 0.000316 µM)?
Answer: 30.6%

Question: What about the viability, T/C (second compound 1 µM, first compound 0.001 µM) of the same compound?
Answer: 30.5%

Question: And the viability, T/C (second compound 1 µM, first compound 0.00316 µM)?
Answer: 30.3%

Question: What about the viability, T/C (second compound 1 µM, first compound 0.01 µM) of the same compound?
Answer: 20.2%

Question: And the viability, T/C [7]?
Answer: 19.6%

Question: What about the viability, T/C [8] of the same compound?
Answer: 9.5%

Question: What about the viability, T/C (second compound 3.16 µM, first compound 0.000316 µM) of the same compound?
Answer: 13.1%

Question: What about the viability, T/C (second compound 3.16 µM, first compound 0.001 µM) of the same compound?
Answer: 23.9%

Question: What about the viability, T/C (second compound 3.16 µM, first compound 0.00316 µM) of the same compound?
Answer: 21.7%

Question: What about the viability, T/C (second compound 3.16 µM, first compound 0.01 µM) of the same compound?
Answer: 19.1%

Question: What about the viability, T/C [9] of the same compound?
Answer: 12.1%

Question: And the viability, T/C [10]?
Answer: 7.83%

Question: And the viability, T/C (second compound 10 µM, first compound 0.000316 µM)?
Answer: 10.6%

Question: And the viability, T/C (second compound 10 µM, first compound 0.001 µM)?
Answer: 10.1%

Question: What about the viability, T/C (second compound 10 µM, first compound 0.00316 µM) of the same compound?
Answer: 9.88%

Question: What about the viability, T/C (second compound 10 µM, first compound 0.01 µM) of the same compound?
Answer: 8.69%

Question: And the viability, T/C [11]?
Answer: 4.8%

Question: And the viability, T/C [12]?
Answer: 4.03%

Question: With `CC1(C)CCC(CN2CCN(c3ccc(C(=O)NS(=O)(=O)c4ccc(NCC5CCOCC5)c([N+](=O)[O-])c4)c(Oc4cnc5[nH]ccc5c4)c3)CC2)=C(c2ccc(Cl)cc2)C1` + Cc1nc(NC(=O)N2CCCC2C(N)=O)sc1-c1ccnc(C(C)(C)C(F)(F)F)c1 as the compound, how does the IC50 (second compound 0.0316 µM) read?
Answer: 5030 nM

Question: And the IC50 (second compound 0.1 µM)?
Answer: 4930 nM

Question: And the IC50 (second compound 0.316 µM)?
Answer: 3530 nM

Question: And the IC50 (second compound 1 µM)?
Answer: < 31.6 nM

Question: And the IC50 (second compound 3.16 µM)?
Answer: < 31.6 nM

Question: What about the IC50 (second compound 10 µM) of the same compound?
Answer: < 31.6 nM

Question: And the viability, T/C [1]?
Answer: 50.2%

Question: And the viability, T/C [2]?
Answer: 81.4%

Question: And the viability, T/C (second compound 0.0316 µM, first compound 0.316 µM)?
Answer: 78.5%

Question: What about the viability, T/C (second compound 0.0316 µM, first compound 1 µM) of the same compound?
Answer: 83%

Question: And the viability, T/C (second compound 0.0316 µM, first compound 3.16 µM)?
Answer: 95.5%

Question: What about the viability, T/C (second compound 0.0316 µM, first compound 10 µM) of the same compound?
Answer: 8.94%

Question: And the viability, T/C [3]?
Answer: 51.2%

Question: What about the viability, T/C [4] of the same compound?
Answer: 74.1%

Question: And the viability, T/C (second compound 0.1 µM, first compound 0.316 µM)?
Answer: 93.8%

Question: And the viability, T/C (second compound 0.1 µM, first compound 1 µM)?
Answer: 69.1%

Question: And the viability, T/C (second compound 0.1 µM, first compound 3.16 µM)?
Answer: 90.8%

Question: What about the viability, T/C (second compound 0.1 µM, first compound 10 µM) of the same compound?
Answer: 8.73%

Question: And the viability, T/C [5]?
Answer: 50.5%

Question: What about the viability, T/C [6] of the same compound?
Answer: 57.7%

Question: What about the viability, T/C (second compound 0.316 µM, first compound 0.316 µM) of the same compound?
Answer: 44%

Question: And the viability, T/C (second compound 0.316 µM, first compound 1 µM)?
Answer: 61.1%

Question: And the viability, T/C (second compound 0.316 µM, first compound 3.16 µM)?
Answer: 58.6%

Question: And the viability, T/C (second compound 0.316 µM, first compound 10 µM)?
Answer: 9.2%

Question: And the viability, T/C [7]?
Answer: 26.7%

Question: And the viability, T/C [8]?
Answer: 24.3%

Question: What about the viability, T/C (second compound 1 µM, first compound 0.316 µM) of the same compound?
Answer: 27.9%

Question: And the viability, T/C (second compound 1 µM, first compound 1 µM)?
Answer: 25.4%

Question: And the viability, T/C (second compound 1 µM, first compound 3.16 µM)?
Answer: 22.6%

Question: And the viability, T/C (second compound 1 µM, first compound 10 µM)?
Answer: 4.29%

Question: And the viability, T/C [9]?
Answer: 16.6%

Question: And the viability, T/C [10]?
Answer: 16.1%

Question: And the viability, T/C (second compound 3.16 µM, first compound 0.316 µM)?
Answer: 13.4%

Question: And the viability, T/C (second compound 3.16 µM, first compound 1 µM)?
Answer: 18.5%

Question: What about the viability, T/C (second compound 3.16 µM, first compound 3.16 µM) of the same compound?
Answer: 18.1%

Question: And the viability, T/C (second compound 3.16 µM, first compound 10 µM)?
Answer: 4.62%

Question: And the viability, T/C [11]?
Answer: 9.42%

Question: What about the viability, T/C [12] of the same compound?
Answer: 8.27%

Question: What about the viability, T/C (second compound 10 µM, first compound 0.316 µM) of the same compound?
Answer: 7.16%

Question: And the viability, T/C (second compound 10 µM, first compound 1 µM)?
Answer: 8.26%

Question: And the viability, T/C (second compound 10 µM, first compound 3.16 µM)?
Answer: 8.41%

Question: What about the viability, T/C (second compound 10 µM, first compound 10 µM) of the same compound?
Answer: 2.21%
